Measurements as given in publication PMC10443802, “Targeting a xenobiotic transporter to ameliorate vincristine-induced sensory neuropathy” (JCI Insight, 2023).
Where “and” joins values, the source holds several entries; their conditions need not be identical. Identical values can stand only once.

Columns and labels:
[1] = target: T1, hOATP1B1 (Homo sapiens, UniProt Q9Y6L6); assay: EβG uptake in HEK293 cells overexpressing hOATP1B1; format: in vitro ADME
T1 sequence (Q9Y6L6 1-691): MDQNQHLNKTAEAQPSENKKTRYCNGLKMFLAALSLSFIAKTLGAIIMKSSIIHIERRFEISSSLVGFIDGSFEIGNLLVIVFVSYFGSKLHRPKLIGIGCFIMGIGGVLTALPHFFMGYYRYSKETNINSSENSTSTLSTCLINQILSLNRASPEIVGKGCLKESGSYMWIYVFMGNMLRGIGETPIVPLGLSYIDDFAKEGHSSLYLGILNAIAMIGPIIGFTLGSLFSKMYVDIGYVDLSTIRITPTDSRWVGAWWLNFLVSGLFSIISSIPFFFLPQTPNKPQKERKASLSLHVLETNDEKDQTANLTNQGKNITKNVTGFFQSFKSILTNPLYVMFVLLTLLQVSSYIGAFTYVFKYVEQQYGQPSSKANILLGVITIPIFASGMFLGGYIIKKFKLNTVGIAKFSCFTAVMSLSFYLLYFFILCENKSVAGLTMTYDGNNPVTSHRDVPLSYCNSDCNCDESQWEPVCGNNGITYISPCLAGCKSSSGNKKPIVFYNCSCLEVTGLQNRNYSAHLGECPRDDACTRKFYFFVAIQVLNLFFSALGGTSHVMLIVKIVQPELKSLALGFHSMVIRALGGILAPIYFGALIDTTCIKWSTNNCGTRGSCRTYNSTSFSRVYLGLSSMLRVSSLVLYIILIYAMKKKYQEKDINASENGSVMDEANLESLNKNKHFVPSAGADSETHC

[2] = target: T2, hOATP1B3 (Homo sapiens, UniProt Q9NPD5); assay: EβG uptake in HEK293 cells overexpressing hOATP1B3; format: in vitro ADME
T2 sequence (Q9NPD5 1-702): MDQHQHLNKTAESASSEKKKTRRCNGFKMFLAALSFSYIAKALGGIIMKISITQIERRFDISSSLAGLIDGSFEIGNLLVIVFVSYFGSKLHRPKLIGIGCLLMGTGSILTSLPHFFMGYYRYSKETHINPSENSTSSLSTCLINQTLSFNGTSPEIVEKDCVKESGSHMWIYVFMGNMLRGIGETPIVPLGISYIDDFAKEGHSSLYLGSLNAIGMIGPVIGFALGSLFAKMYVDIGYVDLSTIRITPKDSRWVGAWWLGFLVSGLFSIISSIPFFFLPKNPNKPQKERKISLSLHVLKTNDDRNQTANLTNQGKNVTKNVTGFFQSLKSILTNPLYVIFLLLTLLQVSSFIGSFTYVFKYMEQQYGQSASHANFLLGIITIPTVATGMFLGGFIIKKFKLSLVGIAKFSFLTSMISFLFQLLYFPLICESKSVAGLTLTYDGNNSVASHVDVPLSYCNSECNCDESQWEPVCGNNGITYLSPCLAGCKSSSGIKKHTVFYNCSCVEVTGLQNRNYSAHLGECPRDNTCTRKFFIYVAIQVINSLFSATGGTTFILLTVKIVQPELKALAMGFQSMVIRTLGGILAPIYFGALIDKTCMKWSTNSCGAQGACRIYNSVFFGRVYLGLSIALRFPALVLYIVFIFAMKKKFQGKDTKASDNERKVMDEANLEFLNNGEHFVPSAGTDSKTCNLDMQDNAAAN

[3] = target: T3, mOATP1B2 (Mus musculus, UniProt Q9JJL3); assay: EβG uptake in HEK293 cells overexpressing mOATP1B2; format: in vitro ADME
T3 sequence (Q9JJL3 1-689): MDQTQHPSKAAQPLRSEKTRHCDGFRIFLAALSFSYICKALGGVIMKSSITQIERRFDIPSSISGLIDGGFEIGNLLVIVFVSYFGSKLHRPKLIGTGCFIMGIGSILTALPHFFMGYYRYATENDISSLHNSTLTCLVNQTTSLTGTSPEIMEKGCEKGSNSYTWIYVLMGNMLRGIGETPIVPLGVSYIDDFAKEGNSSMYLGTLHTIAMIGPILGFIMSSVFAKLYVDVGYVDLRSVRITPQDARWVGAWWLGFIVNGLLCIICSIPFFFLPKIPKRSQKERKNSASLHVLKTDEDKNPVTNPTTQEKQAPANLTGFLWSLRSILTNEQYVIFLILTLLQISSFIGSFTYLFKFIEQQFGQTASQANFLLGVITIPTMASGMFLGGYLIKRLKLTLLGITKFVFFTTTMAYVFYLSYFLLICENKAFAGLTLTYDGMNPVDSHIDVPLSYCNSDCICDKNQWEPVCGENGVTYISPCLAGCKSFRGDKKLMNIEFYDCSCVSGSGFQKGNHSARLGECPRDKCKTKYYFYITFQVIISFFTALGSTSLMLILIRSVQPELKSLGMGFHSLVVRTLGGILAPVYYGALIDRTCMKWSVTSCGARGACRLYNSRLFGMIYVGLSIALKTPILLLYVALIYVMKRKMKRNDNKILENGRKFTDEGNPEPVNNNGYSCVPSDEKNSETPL
Procedure: DRG, sciatic and caudal nerves were prepared, stained with toluidine blue, and examined with a Zeiss Axioskop WideField Light Microscope, as described previously (10). Representative images were captured with a QIClick Digital CCD color camera. For DRG morphometrics, the somatic size was measured for each cell containing nucleolus, and at least 200 DRG neurons per animal were manually measured and analyzed with a computer-assisted image analyzer (ImageJ software, Bethesda, MD). For sciatic nerve, all myelinated fibers evaluable in the analyzed space were counted and the internal (axonal) and external (total) diameters of myelinated fibers were measured on at least 500 myelinated fibers/nerve. The histograms of g-ratio (axonal diameter/whole fiber diameter as a measure of myelination degree in each fiber) distribution were generated. An observer blinded to the group compositions performed all the morphometric determinations.
Cellular accumulation. Human embryonic kidney (HEK293) cells (ATCC) overexpressing OATP1B1, […]
After incubation, transport was halted by aspirating radiolabeled drug, and rinsing the cells three times with ice-cold 1X PBS. Total radioactivity originating from the substrates was measured by lysing the cells with 1N NaOH, neutralized with 2N HCL, and measuring total radioactivity by liquid scintillation counting using an LS 6500 Counter (Beckman). […]

[4] = target: T2, hOATP1B3; assay: Inhibition of EβG uptake in HEK293 cells overexpressing hOATP1B3
[5] = target: T2, hOATP1B3; assay: α-tocopherol uptake in HEK293 cells overexpressing hOATP1B3; format: in vitro ADME
[6] = cited from earlier work
[7] = test system: OATP1B2; assay: Untargeted metabolomics of plasma and DRG, WT vs OATP1B2-deficient mice; format: in vivo, mouse
From the text: (A) Schematic overview of the untargeted metabolomics screen to discover an endogenous biomarker of OATP1B2. […] Positive fold change indicates higher plasma concentration in OATP1B2^–/– mice (n = 6 per group). […] (C) Volcano plot of differentially endogenous metabolites in untreated whole DRG samples of WT mice or OATP1B2^–/– mice. Negative fold change indicates lower DRG levels in OATP1B2^–/– mice (n = 6 per group). (D) Plasma levels and DRG/plasma ratios of α-tocopherol in WT mice or OATP1B2^–/– mice in secondary validation studies. […] Data are normalized to baseline levels observed in WT mice (n = 3 per group).

[8] = target: T1, hOATP1B1; assay: α-tocopherol uptake in HEK293 cells overexpressing hOATP1B1; format: in vitro ADME
[9] = test system: OATP1B2; assay: Plasma level and DRG/plasma ratio of α-tocopherol in mice (biomarker of OATP1B2 function); format: in vivo, mouse

C[C@]12CC[C@@H]3c4ccc(O)cc4CC[C@H]3[C@@H]1CC[C@@H]2O[C@@H]1O[C@H](C(=O)O)[C@@H](O)[C@H](O)[C@H]1O [EβG, estradiol-17β-ᴅ-glucuronide]
EβG uptake (% of vector) [1]: 1260.82 % of vector and 1125.55 % of vector and 1194.22 % of vector
EβG uptake (% of vector) [2]: 5469.07 % of vector and 5408.81 % of vector and 5929.51 % of vector
EβG uptake (% of vector) [3]: 2727.12 % of vector and 2435.39 % of vector and 2079.28 % of vector

Cc1c(C)c2c(c(C)c1O)CC[C@@](C)(CCC[C@H](C)CCC[C@H](C)CCCC(C)C)O2 [α-tocopherol]
Inhibition of transporter-mediated uptake of EβG [4]: can mediate inhibition of transporter-mediated uptake
Substrate status ([5]; OATP1B3): transported substrate of OATP1B3
α-tocopherol uptake (% of vehicle) ([5]; VC cells, control for hOATP1B3): 86.9835% and 91.7117% and 121.305% and 85.9356% and 106.189% and 107.875%
α-tocopherol uptake (% of vehicle) ([5]; cells overexpressing hOATP1B3): 213.78% and 147.762% and 148.702% and 127.524% and 133.603% and 184.662%
Share recovered in the liver [6]: up to 90%
Fold of Change KO/WT ([7]; DRG samples, untreated OATP1B2-deficient (KO) vs wild-type mice): 0.730
Fold of Change KO/WT ([7]; untreated plasma, OATP1B2-deficient (KO) vs wild-type mice): 2.03
α-tocopherol uptake (% of vehicle) ([8]; VC cells, control for hOATP1B1): 88.8965% and 111.905% and 99.1984%
α-tocopherol uptake (% of vehicle) ([8]; cells overexpressing hOATP1B1): 109.574% and 76.2241% and 88.2425%
Level of α-tocopherol (% of wild-type) ([9]; DRG, OATP1B2(-/-) mice): 28.1345 % of wild-type and 39.8965 % of wild-type and 39.7351 % of wild-type and 42.7289 % of wild-type and 36.0477 % of wild-type and 32.6784 % of wild-type
Level of α-tocopherol (% of wild-type) ([9]; DRG, Wild-type mice): 86.7441 % of wild-type and 109.645 % of wild-type and 120.39 % of wild-type and 114.671 % of wild-type and 77.0519 % of wild-type and 91.498 % of wild-type
Level of α-tocopherol (% of wild-type baseline), relative DRG/plasma ratio ([9]; KO (OATP1B2-/-) mice): 39.9993 % of wild-type baseline and 37.2252 % of wild-type baseline and 46.6384 % of wild-type baseline
Level of α-tocopherol (% of wild-type baseline), DRG/Plasma Ratio ([9]; KO mice): 39.9993% and 37.2252% and 46.6384%
Level of α-tocopherol (% of wild-type baseline), Plasma ([9]; KO mice): 178.006% and 210.63% and 138.224%
Level of α-tocopherol (% of wild-type) ([9]; Plasma, OATP1B2(-/-) mice): 240.656 % of wild-type and 154.285 % of wild-type and 188.158 % of wild-type and 206.445 % of wild-type and 170.946 % of wild-type and 257.161 % of wild-type
Level of α-tocopherol (% of wild-type) ([9]; Plasma, Wild-type mice): 128.573 % of wild-type and 75.6647 % of wild-type and 109.778 % of wild-type and 78.7903 % of wild-type and 110.315 % of wild-type and 96.8791 % of wild-type
Level of α-tocopherol (% of wild-type baseline), relative DRG/plasma ratio ([9]; WT mice, baseline): 92.6568 % of wild-type baseline and 110.888 % of wild-type baseline and 96.4551 % of wild-type baseline
Level of α-tocopherol (% of wild-type baseline), DRG/Plasma Ratio ([9]; WT mice): 92.6568% and 110.888% and 96.4551%
Level of α-tocopherol (% of wild-type baseline), Plasma ([9]; WT mice): 108.759% and 91.8035% and 99.4376%
